In patent US20060089412A1, “Pharmaceutical composition for the treatment of non-alcoholic fatty liver disease” (AJINOMOTO CO. INC., priority 2004, published 2006):

Legend:
[1] = system: choline-deficient diet (CDD) rat model; assay: Choline-deficient diet (CDD) rat model of NASH-like liver change; assay type: in vivo, Male Wistar rats; settings: CDD mixed with 4% L-alanine for 4 weeks
Source text: Male Wistar rats (7 weeks of age, 5 rats per group) received CDD (Dyets Co.) for 4 weeks.
On the other hand, in the group of 5 rats received CDD mixed with 4% L-alanine for 4 weeks, one rat is normalized in liver weight (10.6 g).

[2] = system: HFD-induced fatty liver rat model; assay: Hepatic triglyceride contents in high-fat diet (HFD)-induced fatty liver rat model; assay type: in vivo, Male GK rats; settings: diet mixed with 4% L-alanine for 6 weeks; one rat of 6, in the level of SD group
Protocol: It has been supposed that the increase of the amount of fat intake in the last few decades is one of the causes of the recent increase of the number of patients with NASH. Therefore, the effect of L-alanine on the hepatic triglyceride contents in the high-fat diet (hereinafter HFD)-induced fatty liver rat model.
Male GK rats (9 weeks of age, 6 rats per group) received HFD (containing 30% beef tallow) for 6 weeks. Triglyceride contents in the liver tissue was increased to 29.1 to 49.3 mg per gram of liver tissue, compared with those (14.1 to 24.2 mg) in the group fed with standard diet (containing 5% soy-been oil; hereinafter SD).
Pioglitazone is a drug, which acts as an insulin-sensitizer for the patients with diabetes. Recent clinical pilot studies raise the possibility of clinical utility of pioglitazone for NASH.
On the other hand, in the group of 6 rats received CDD mixed with 4% L-alanine for 6 weeks, one rat is reduced in the liver triglyceride contents (19.6 mg) in the level of SD group.

[3] = Body weight in HFD-induced fatty liver rat model; assay type: in vivo, Male GK rats; settings: for body weight increase compared with HFD alone: 6 weeks, HFD + drug versus HFD alone; for Body Weight, Pre: before feeding
Source text: Male GK rats (9 weeks of age, 6 rats per group) received HFD (containing 30% beef tallow) for 6 weeks.

| SMILES | liver weight ([1]; one rat of 5 (normalized), CDD alone 14.5 to 20.0 g) | histological fat accumulation in the liver ([1]; the one rat of 5 with normalized liver weight) | liver triglyceride contents [2] | body weight increase compared with HFD alone [3] | Body Weight, Post (at 6 weeks) ([3]; after 6 weeks of HFD mixed with drug, means ± SD (n = 6)) | Body Weight, Pre ([3]; means ± SD (n = 6)) |
| --- | --- | --- | --- | --- | --- | --- |
| C[C@H](N)C(=O)O [L-alanine] | 10.6 g | not recognized | 19.6 mg | not observed | 331.8 ± 20.5 g | 219.8 ± 13.0 g |
| CCc1ccc(CCOc2ccc(CC3SC(=O)NC3=O)cc2)nc1 (centres unmarked) [pioglitazone, reference compound] | – | – | – | significantly more increased | – | 222.1 ± 9.9 g |
